{"source": "patent US10369093B2", "about": "“Stable solution of hexamidine salts in alkanediol-water mixtures, with antimicrobial and skin-moisturising effect” (MINASOLVE GERMANY GMBH, priority 2015, dated 2019)", "key": {"[1]": {"settings": "according to EP1477157B1; cited from earlier work"}, "Candida albicans": {"test_system": "Candida albicans", "test": "Minimum inhibitory concentration, suspension test", "assay_type": "cell-based", "settings": "4 days at 30° C.", "experimental": "(§1) Minimal inhibitory concentrations against bacteria, fungi and yeasts were determined by means of a suspension test. For this purpose, nine-stage dilution series of the respective test substances were prepared in 1:1 mixtures of CASO broth and distilled water. For the tests with mushrooms and yeasts in each case 2% dextrose was added. Each microorganism was tested separately in a test tube containing 10 ml of said culture medium. To each tube was added 0.1 ml of a suspension containing 5×10^8 colony forming units (CFU) for bacteria and 1×10^7 CFU for fungi and yeasts, respectively. Each tube was incubated for 3 days at 37° C. (bacteria) or for 4 days at 30° C. (fungi and yeasts). The minimum inhibitory concentration was defined as the concentration at which no turbidity or other visible signs of microbial growth were observed after the end of the test period."}, "Escherichia coli": {"test_system": "Escherichia coli", "test": "Minimum inhibitory concentration, suspension test", "assay_type": "cell-based", "settings": "3 days at 37° C.", "experimental": "as §1"}, "Aspergillus brasiliensis": {"test_system": "Aspergillus brasiliensis", "test": "Minimum inhibitory concentration, suspension test", "assay_type": "cell-based", "settings": "4 days at 30° C.", "experimental": "as §1"}, "Staphylococcus aureus": {"test_system": "Staphylococcus aureus", "test": "Minimum inhibitory concentration, suspension test", "assay_type": "cell-based", "settings": "3 days at 37° C.", "experimental": "as §1"}, "Pseudomonas aeruginosa": {"test_system": "Pseudomonas aeruginosa", "test": "Minimum inhibitory concentration, suspension test", "assay_type": "cell-based", "settings": "3 days at 37° C.", "experimental": "as §1"}, "[2]": {"test_system": "forearms of healthy volunteers (human skin)", "test": "Corneometry test for moisturizing effect", "assay_type": "in vivo", "settings": "3% in H2O", "experimental": "To test the moisturizing effect of various substances and mixtures, the test substances were diluted with distilled water to a concentration of 2-3%. The diluted solutions were applied to the forearms of healthy volunteers (number: 12, age: 19-64 years). Before and after the simple application, the skin moisture of the treated skin areas was measured instrumentally with the aid of a Corneometer CM825, combined with a Cutometer dual MPA 580 from Courage & Khazaka. All measurements were preceded by acclimatization of the subjects in a controlled environment (21° C.±1° C., 45%±10% humidity). The measurement results are given as a percentage change from the initial value after 1 h, 2 h, 4 h, 8 h and 24 h and are summarized in Table 4."}, "[3]": {"settings": "BASF data sheet Elestab HP100; cited from earlier work"}}}
{"compound": "CCCCC(O)CO", "note": "(centres unmarked) [1,2-hexanediol]", "values": [{"measurement": "C log P", "setting": "[1]", "result": "+0.25"}]}
{"compound": "CCCC(O)CO", "note": "(centres unmarked) [1,2-pentanediol]", "values": [{"measurement": "Minimal Inhibitory Concentration (MIC)", "setting": "Candida albicans", "result": 2.5, "unit": "%"}, {"measurement": "Minimal Inhibitory Concentration (MIC)", "setting": "Escherichia coli", "result": 2.5, "unit": "%"}, {"measurement": "Minimal Inhibitory Concentration (MIC)", "setting": "Aspergillus brasiliensis", "result": 2.5, "unit": "%"}, {"measurement": "Minimal Inhibitory Concentration (MIC)", "setting": "Staphylococcus aureus", "result": 4.0, "unit": "%"}, {"measurement": "Minimal Inhibitory Concentration (MIC)", "setting": "Pseudomonas aeruginosa", "result": 2.5, "unit": "%"}, {"measurement": "corneometry, % change compared to T0 after 1 h", "setting": "[2]", "result": "+18.8%"}, {"measurement": "corneometry, % change compared to T0 2 h", "setting": "[2]", "result": "+31.6%"}, {"measurement": "corneometry, % change compared to T0 4 h", "setting": "[2]", "result": "+37.7%"}, {"measurement": "corneometry, % change compared to T0 8 h", "setting": "[2]", "result": "+21.6%"}, {"measurement": "corneometry, % change compared to T0 24 h", "setting": "[2]", "result": "+13.1%"}]}
{"compound": "OCCCCCCCO", "note": "[1,7-heptanediol]", "values": [{"measurement": "C log P", "setting": "[1]", "result": "+0.46"}]}
{"compound": "OCC(O)CO", "note": "[glycerin]", "values": [{"measurement": "corneometry, % change compared to T0 after 1 h", "setting": "[2]", "result": "+34.3%"}, {"measurement": "corneometry, % change compared to T0 2 h", "setting": "[2]", "result": "+40.2%"}, {"measurement": "corneometry, % change compared to T0 4 h", "setting": "[2]", "result": "+39.5%"}, {"measurement": "corneometry, % change compared to T0 8 h", "setting": "[2]", "result": "+29.9%"}, {"measurement": "corneometry, % change compared to T0 24 h", "setting": "[2]", "result": "+17.5%"}]}
{"compound": "N=C(N)c1ccc(OCCCCCCOc2ccc(C(=N)N)cc2)cc1", "note": "[hexamidine diisethionate, 2-hydroxyethanesulfonic acid-4,4′-[1,6-hexanediylbis(oxy)]dibenzenecarboximidamide]", "values": [{"measurement": "compatible pH range", "setting": "[3]", "result": "3-8"}, {"measurement": "Minimal Inhibitory Concentration (MIC)", "setting": "Candida albicans", "result": 0.01, "unit": "%"}, {"measurement": "Minimal Inhibitory Concentration (MIC)", "setting": "Escherichia coli", "result": 0.01, "unit": "%"}, {"measurement": "Minimal Inhibitory Concentration (MIC)", "setting": "Aspergillus brasiliensis", "result": 0.0005, "unit": "%"}, {"measurement": "Minimal Inhibitory Concentration (MIC)", "setting": "Staphylococcus aureus", "result": 0.0025, "unit": "%"}, {"measurement": "Minimal Inhibitory Concentration (MIC)", "setting": "Pseudomonas aeruginosa", "result": 0.1, "unit": "%"}]}
